Reference: patent publication US6737383B1, “Herbicidal oxadiazolidines” (priority 1999, dated 2004)

Experiments:
bamyardgrass = test: Test B flood test barnyardgrass; type: in vivo, Echinochloa crus-galli; settings: for Plant response rating, Barnyardgrass (0 to 10 scale, 0 is no effect, 10 is complete control): Rate 62 g/ha; for Plant response rating, Barnyardgrass (0 to 10 scale, 0 is no effect, 10 is complete control) / Barnyardgrass plant response rating (0 to 10 scale, 0 is no effect, 10 is complete control): visual evaluation after twelve to sixteen days; for Barnyardgrass plant response rating (0 to 10 scale, 0 is no effect, 10 is complete control): Rate 125 g/ha, under heading Pre-emergence
How it was run: (§1)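 Each value is a visual injury score relative to controls, with 10 meaning complete control and 0 no effect. Evaluation took place twelve to sixteen days after the 2-leaf-stage plants were treated and kept in the greenhouse.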

duck salad = test: Test B flood test duck salad; type: in vivo, Heteranthera limosa; settings: for Plant response rating, Ducksalad (0 to 10 scale, 0 is no effect, 10 is complete control): Rate 62 g/ha; for Plant response rating, Ducksalad (0 to 10 scale, 0 is no effect, 10 is complete control) / Ducksalad plant response rating (0 to 10 scale, 0 is no effect, 10 is complete control): visual evaluation after twelve to sixteen days; for Ducksalad plant response rating (0 to 10 scale, 0 is no effect, 10 is complete control): Rate 125 g/ha, under heading Pre-emergence
How it was run: as §1

purple nutsedge = test: Test B pre/postemergence purple nutsedge; type: in vivo, Cyperus rotundus
How it was run: (§2)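 Herbicidal effect was estimated by eye on a ten-point control scale after plants spent twelve to sixteen days in a greenhouse following soil or foliar treatment. Foliar sprays targeted plants at one to four leaves; all doses were formulated in a non-phytotoxic solvent with surfactant.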

crabgrass = test: Test B pre/postemergence crabgrass; type: in vivo, Digitaria sanguinalis
How it was run: as §2

[1] = flood test species, Pre-emergence
[2] = Rate 250 g/ha, Pre-emergence (flood test species), scale 0 to 10, 0 is no effect, 10 is complete control
[3] = Rate 500 g/ha, Pre-emergence, flood test species, scale 0 to 10 (0 no effect, 10 complete control)
[4] = Postemergence, Rate 250 g/ha, scale 0 to 10
[5] = Preemergence, Rate 62 g/ha, scale of 0 to 10 where 0 is no effect and 10 is complete control
[6] = Preemergence, Rate 125 g/ha, scale of 0 to 10 where 0 is no effect and 10 is complete control
[7] = Preemergence, Rate 500 g/ha, scale 0 to 10, 0 is no effect, 10 is complete control
[8] = Rate 62 g/ha, Postemergence, scale 0 to 10, 0 no effect, 10 complete control
[9] = Rate 125 g/ha, Postemergence, scale 0 to 10, 0 is no effect, 10 is complete control
[10] = Postemergence, Rate 500 g/ha, scale of 0 to 10 where 0 is no effect and 10 is complete control
[11] = Preemergence, Rate 250 g/ha, scale 0 to 10, 0 is no effect, 10 is complete control
[12] = Postemergence, Rate 125 g/ha, scale 0 to 10, 0 is no effect, 10 is complete control
[13] = Preemergence, Rate 125 g/ha, scale 0 to 10, 0 is no effect, 10 is complete control
[14] = Rate 31 g/ha, Pre-emergence section (flood test species), scale 0 to 10
[15] = Postemergence, Rate 31 g/ha, visual rating, scale 0 to 10 (0 no effect, 10 complete control)
[16] = Rate 500 g/ha, Pre-emergence section of Table B, 0 to 10 scale (0 no effect, 10 complete control)
[17] = Postemergence, Rate 62 g/ha, scale 0 to 10, 0 is no effect, 10 is complete control
[18] = Postemergence, Rate 125 g/ha, scale of 0 to 10 where 0 is no effect and 10 is complete control
[19] = Postemergence, Rate 250 g/ha, scale of 0 to 10, 0 is no effect, 10 is complete control
[20] = Preemergence, Rate 62 g/ha, scale 0 to 10 (0 no effect, 10 complete control)
[21] = Preemergence, Rate 250 g/ha, scale 0 to 10 (0 no effect, 10 complete control)
[22] = Preemergence, Rate 500 g/ha, scale of 0 to 10 where 0 is no effect and 10 is complete control

Structure (SMILES) | Plant response rating, Barnyardgrass (0 to 10 scale, 0 is no effect, 10 is complete control) (bamyardgrass; [1]) | Barnyardgrass plant response rating (0 to 10 scale, 0 is no effect, 10 is complete control) (bamyardgrass; flood test species) | Barnyardgrass plant response rating (bamyardgrass; [2]) | Barnyardgrass plant response rating (bamyardgrass; [3]) | Plant response rating, Ducksalad (0 to 10 scale, 0 is no effect, 10 is complete control) (duck salad; [1]) | Ducksalad plant response rating (0 to 10 scale, 0 is no effect, 10 is complete control) (duck salad; flood test species) | Ducksalad plant response rating (duck salad; [2]) | Ducksalad plant response rating (duck salad; [3]) | Nutsedge plant response rating (purple nutsedge; [4]) | Plant response rating, Nutsedge (purple nutsedge; [5]) | Nutsedge plant response rating (purple nutsedge; [7]) | Nutsedge plant response rating (purple nutsedge; [8]) | Crabgrass plant response rating (crabgrass; [4]) | Crabgrass plant response rating (crabgrass; [10]) | Plant response rating, Crabgrass (crabgrass; [5]) | Crabgrass plant response rating (crabgrass; [11]) | Crabgrass plant response rating (crabgrass; [7]) | Crabgrass plant response rating (crabgrass; [8]) | Nutsedge plant response rating (purple nutsedge; [11]) | Barnyardgrass plant response rating (bamyardgrass; [16]) | other results
CC(C)N(C(=O)n1oc(=O)n(C(C)C#N)c1=O)c1ccc(Cl)cc1 (stereo not drawn) [Compound 451] | 0 | 0 | 0 | 0 | 0 | 0 | 0 | 0 | 0 | 0 | 0 | 0 | 4 | 6 | 0 | 1 | 7 | 0 |  |  | Plant response rating, Nutsedge (purple nutsedge; [6]): 0; Nutsedge plant response rating (purple nutsedge; [9]): 0; Plant response rating, Crabgrass (crabgrass; [6]): 0; Crabgrass plant response rating (crabgrass; [9]): 0
CC(C)N(C(=O)n1oc(=O)n(CC#N)c1=O)c1ccc(Cl)cc1 [Compound 476] | 0 | 0 | 0 | 0 | 0 | 0 | 0 | 0 | 0 | 0 | 0 | 0 | 0 | 0 | 0 | 0 | 0 | 0 | 0 |  | Plant response rating, Nutsedge (purple nutsedge; [6]): 0; Nutsedge plant response rating (purple nutsedge; [9]): 0; Plant response rating, Crabgrass (crabgrass; [6]): 0; Crabgrass plant response rating (crabgrass; [9]): 0
CC(C)N(C(=O)n1oc(=O)n(Cc2cnc(Cl)s2)c1=O)c1ccc(F)cc1 [Compound 482] | 0 | 0 | 0 | 0 | 0 | 0 | 0 | 0 | 0 | 0 | 0 | 0 | 1 | 3 | 3 | 8 | 8 | 0 | 0 |  | Nutsedge plant response rating (purple nutsedge; [12]): 0; Nutsedge plant response rating (purple nutsedge; [13]): 0; Crabgrass plant response rating (crabgrass; [12]): 0; Crabgrass plant response rating (crabgrass; [13]): 8
CC(C)N(C(=O)n1oc(=O)n(CC[N+](=O)[O-])c1=O)c1ccc(Cl)cc1 [Compound 483] | 0 | 0 | 0 |  | 0 | 0 | 0 |  | 0 | 0 |  | 0 | 0 |  | 0 | 0 |  | 0 | 0 |  | Barnyardgrass plant response rating (bamyardgrass; [14]): 0; Ducksalad plant response rating (duck salad; [14]): 0; Nutsedge plant response rating (purple nutsedge; [15]): 0; Nutsedge plant response rating (purple nutsedge; [12]): 0; Nutsedge plant response rating (purple nutsedge; [13]): 0; Crabgrass plant response rating (crabgrass; [15]): 0; Crabgrass plant response rating (crabgrass; [12]): 0; Crabgrass plant response rating (crabgrass; Preemergence, Rate 31 g/ha, visual rating, scale 0 to 10 (0 no effect, 10 complete control)): 0; Crabgrass plant response rating (crabgrass; [13]): 0
CC(C)N(C(=O)n1oc(=O)n(CNC(=O)c2ccccc2)c1=O)c1ccc(F)cc1F [Compound 619] | 0 | 0 | 0 |  | 0 | 0 | 0 |  |  |  |  |  |  |  |  |  |  |  |  | 0 | Ducksalad plant response rating (duck salad; [16]): 0; Plant response rating, Nutsedge (purple nutsedge; [17]): 0; Plant response rating, Nutsedge (purple nutsedge; [18]): 0; Nutsedge plant response rating (purple nutsedge; [19]): 0; Plant response rating, Nutsedge (purple nutsedge; [10]): 0; Nutsedge plant response rating (purple nutsedge; [20]): 0; Nutsedge plant response rating (purple nutsedge; [6]): 0; Plant response rating, Nutsedge (purple nutsedge; [21]): 0; Plant response rating, Crabgrass (crabgrass; [17]): 0; Plant response rating, Crabgrass (crabgrass; [18]): 0; Crabgrass plant response rating (crabgrass; [19]): 0; Plant response rating, Crabgrass (crabgrass; [10]): 2; Crabgrass plant response rating (crabgrass; [20]): 0; Crabgrass plant response rating (crabgrass; [6]): 1; Plant response rating, Crabgrass (crabgrass; [21]): 6; Plant response rating, Crabgrass (crabgrass; [22]): 8
CC(=O)NCn1c(=O)on(C(=O)N(c2ccccc2)C(C)C)c1=O [Compound 621] | 0 | 0 | 0 |  | 0 | 0 | 0 |  |  |  |  |  |  |  |  |  |  |  |  | 0 | Ducksalad plant response rating (duck salad; [16]): 0; Plant response rating, Nutsedge (purple nutsedge; [17]): 0; Plant response rating, Nutsedge (purple nutsedge; [18]): 0; Nutsedge plant response rating (purple nutsedge; [19]): 0; Plant response rating, Nutsedge (purple nutsedge; [10]): 0; Nutsedge plant response rating (purple nutsedge; [20]): 0; Nutsedge plant response rating (purple nutsedge; [6]): 0; Plant response rating, Nutsedge (purple nutsedge; [21]): 0; Plant response rating, Nutsedge (purple nutsedge; [22]): 0; Plant response rating, Crabgrass (crabgrass; [17]): 0; Plant response rating, Crabgrass (crabgrass; [18]): 3; Crabgrass plant response rating (crabgrass; [20]): 5; Crabgrass plant response rating (crabgrass; [6]): 6; Plant response rating, Crabgrass (crabgrass; [21]): 7; Plant response rating, Crabgrass (crabgrass; [22]): 8
CC(=O)N(C)CCn1c(=O)on(C(=O)N(c2ccc(F)cc2)C(C)C)c1=O [Compound 625] | 0 | 0 | 0 |  | 0 | 0 | 0 |  |  |  |  |  |  |  |  |  |  |  |  | 0 | Ducksalad plant response rating (duck salad; [16]): 0; Plant response rating, Nutsedge (purple nutsedge; [17]): 0; Plant response rating, Nutsedge (purple nutsedge; [18]): 0; Nutsedge plant response rating (purple nutsedge; [19]): 0; Nutsedge plant response rating (purple nutsedge; [20]): 0; Nutsedge plant response rating (purple nutsedge; [6]): 0; Plant response rating, Nutsedge (purple nutsedge; [21]): 0; Plant response rating, Nutsedge (purple nutsedge; [22]): 0; Plant response rating, Crabgrass (crabgrass; [17]): 1; Plant response rating, Crabgrass (crabgrass; [18]): 0; Crabgrass plant response rating (crabgrass; [19]): 4; Plant response rating, Crabgrass (crabgrass; [10]): 8; Crabgrass plant response rating (crabgrass; [20]): 2; Crabgrass plant response rating (crabgrass; [6]): 7; Plant response rating, Crabgrass (crabgrass; [21]): 8; Plant response rating, Crabgrass (crabgrass; [22]): 10
